According to US8476253B2, “Amide derivative” (Daiichi Sankyo Company, Limited, priority 2009, dated 2013):
Counter-ions that a name gives are not always drawn.

Legend:
[1] = biological target: T1, substance P receptor (Cavia porcellus, UniProt P30547); experiment: Test for binding to guinea-pig substance P receptor (crude lung membrane sample); details: crude guinea-pig lung membrane sample, [3H]substance P; Ki from IC50 and Kd; read-out: Ki
T1 construct: A preparation of a crude lung membrane sample was prepared; from tissue; host or cells: guinea-pig lung (crude membrane sample)
T1 sequence (P30547 whole entry): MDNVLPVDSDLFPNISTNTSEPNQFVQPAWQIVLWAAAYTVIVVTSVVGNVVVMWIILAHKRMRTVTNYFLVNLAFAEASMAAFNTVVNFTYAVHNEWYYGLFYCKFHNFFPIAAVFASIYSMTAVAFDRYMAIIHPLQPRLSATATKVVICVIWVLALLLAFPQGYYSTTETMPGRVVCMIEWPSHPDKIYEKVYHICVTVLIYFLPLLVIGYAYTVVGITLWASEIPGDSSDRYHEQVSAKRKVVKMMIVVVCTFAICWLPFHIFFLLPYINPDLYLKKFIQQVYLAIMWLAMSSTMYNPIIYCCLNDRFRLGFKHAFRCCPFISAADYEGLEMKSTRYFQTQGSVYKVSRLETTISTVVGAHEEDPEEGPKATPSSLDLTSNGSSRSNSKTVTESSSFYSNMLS
Procedure: A preparation of a crude lung membrane sample was prepared, and a test for binding of a test substance to the sample was performed according to the method described in EP0336230A2.
The binding effect of the test substance to a substance P receptor was calculated as an affinity (Ki) of the test substance for the substance P receptor from a 50% binding concentration (IC50) and an affinity (Kd) of [^3H]substance P for the substance P receptor.

[2] = tested on: muscarine M3 receptor; experiment: Effect of suppressing methacholine-induced airway contraction (in vivo, intratracheal administration); design: species or system guinea pig; details: guinea pigs, intratracheal administration 60 minutes before 30 μg/kg i.v. methacholine; AUC of increase in airway pressure over 10 minutes
Outline: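 Anesthetized, gallamine-paralysed, ventilated male Hartley guinea pigs (350–550 g); compound in 5% glucose given intratracheally 60 min before 30 μg/kg i.v. methacholine. Airway pressure AUC over 10 min scored; ID50 from inhibition versus 5% glucose vehicle group.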

[3] = biological target: T2, neurokinin NK1 receptor (Cavia porcellus, UniProt P30547); experiment: Effect of suppressing substance P-induced airway contraction (in vivo, intratracheal administration); design: species or system guinea pig; details: guinea pig; guinea pigs, intratracheal administration 60 minutes before 20 μg/kg i.v. SP; AUC of increase in airway pressure over 10 minutes; read-out: ID50 (the source's name)
T2 construct: Using healthy guinea pigs (body weight, 350 to 550 g; Hartley male guinea pigs); from tissue; host or cells: live anaesthetised Hartley male guinea pigs (airway, in vivo)
T2 sequence (P30547 whole entry): as above
Procedure: Using healthy guinea pigs (body weight, 350 to 550 g; Hartley male guinea pigs), the effect of suppressing airway contraction induced by substance P (SP), which is an NK1 receptor agonist, was examined by a modified method of Konzett-Roessler (Naunyn-Schmiedebergs Arch. Exp. Pathol. Pharmakol. 195, 71 [1940]) using airway pressure as an indicator.
A tracheal cannula and a venous cannula were attached to a guinea pig anesthetized with pentobarbital (50 mg/mL solution, 0.40 to 0.50 mL/body, subcutaneous administration). An arterial cannula filled with heparin-containing physiological saline (100 U/mL) was further attached, and blood pressure and heart rate were monitored via an amplifier and an instantaneous heart rate meter. Subsequently, gallamine (20 mg/body, intravenous administration) was administered to terminate spontaneous breathing, and then 10 mL/kg of positive pressure breathing (Ugo-Basile Biological Research Apparatus, Cat. No. 7025) was rapidly performed at 60 times/min. The airway pressure during artificial breathing was detected with a pressure transducer (TP-200T or TP-400T; Nihon Kohden Corporation) attached to a side branch of the tracheal cannula, amplified (AP-601G; Nihon Kohden Corporation), and recorded in a recorder. After the airway pressure, blood pressure, and heart rate were stabilized, 20 μg/kg of SP was intravenously administered from the venous cannula to induce airway contraction, and the airway pressure was measured for the following 10 minutes.
The test substance was dissolved in a 5% glucose solution, a 0.5 mL/kg solution was intratracheally administered with an intratracheal administration apparatus (model 1A-1B; Penn-Century, Inc.) 60 minutes before stimulation with SP.
The AUC of increase in the airway pressure over 10 minutes after administration of SP was determined as the intensity of SP-induced airway contraction and calculated as an ID50 value from the inhibition rate based on the value of the control group (5% glucose solution intratracheal administration group).

| SMILES | Ki [1] [nM] | ID50 [2] [mg/kg] | ED50 [3] [mg/kg] |
| --- | --- | --- | --- |
| CN(CCN1CCC(OC(=O)Nc2ccccc2-c2ccccc2)CC1)C(=O)CCOCCNc1ccc(C(=O)N(C)CCCN(C)C(=O)CO[C@H]2Cc3ccccc3C23CCN(CC[C@@]2(c4ccc(F)cc4)CN(C(=O)c4cc(C(F)(F)F)cc(C(F)(F)F)c4)CO2)CC3)cc1 [Example 29, 1-{2-[{3-[2-({4-[{3-[({[(2S)-1′-{2-[(5R)-3-[3,5-Bis(trifluoromethyl)benzoyl]-5-(4-fluorophenyl)-1,3-oxazolidin-5-yl]ethyl}-2,3-dihydrospiro[indene-1,4′-piperidin]-2-yl]oxy}acetyl)(methy)amino]propyl}(methyl)carbamoyl]phenyl}amino)ethoxy]propanoyl}(methyl)amino]ethyl}piperidin-4-yl biphenyl-2-ylcarbamate trihydrochloride] | 1.4 | 0.0266 | 0.0292 |
| Cc1cc(NCCCCCC(=O)N(C)CCN2CCC(OC(=O)Nc3ccccc3-c3ccccc3)CC2)sc1C(=O)N(C)CCCN(C)C(=O)CO[C@H]1Cc2ccccc2C12CCN(CC[C@@]1(c3ccc(F)cc3)CN(C(=O)c3cc(C(F)(F)F)cc(C(F)(F)F)c3)CO1)CC2 [Example 30, 1-(2-{[6-({5-[{3-[({[(2S)-1′-{2-[(5R)-3-[3,5-Bis(trifluoromethyl)benzoyl]-5-(4-fluorophenyl)-1,3-oxazolidin-5-yl]ethyl}-2,3-dihydrospiro[indene-1,4′-piperidin]-2-yl]oxy}acetyl)(methyl)amino]propyl}(methyl)carbamoyl]-4-methyl-2-thienyl}amino)hexanoyl](methyl)amino}ethyl)piperidin-4-yl biphenyl-2-ylcarbamate trihydrochloride] | 1.9 | 0.0088 | 0.0388 |
| CN(CCN1CCC(OC(=O)Nc2ccccc2-c2ccccc2)CC1)C(=O)CCCCNc1ccc(C(=O)N(C)CCCN(C)C(=O)CO[C@H]2Cc3ccccc3C23CCN(CC[C@@]2(c4ccc(F)cc4)CN(C(=O)c4cc(C(F)(F)F)cc(C(F)(F)F)c4)CO2)CC3)cc1 [Example 32, 1-(2-{[5-({4-[{3-[({[(2S)-1′-{2-[(5R)-3-[3,5-Bis(trifluoromethyl)benzoyl]-5-(4-fluorophenyl)-1,3-oxazolidin-5-yl]ethyl}-2,3-dihydrospiro[indene-1,4′-piperidin]-2-yl]oxy}acetyl)(methyl)amino]propyl}(methyl)carbamoyl]phenyl}amino)pentanoyl](methyl)amino}ethyl)piperidin-4-yl biphenyl-2-ylcarbamate trihydrochloride] | 1.3 | 0.0356 | 0.0202 |
| CN(CCN1CCC(OC(=O)Nc2ccccc2-c2ccccc2)CC1)C(=O)CCCNc1ccc(C(=O)N(C)CCCN(C)C(=O)CO[C@H]2Cc3ccccc3C23CCN(CC[C@@]2(c4ccc(F)cc4)CN(C(=O)c4cc(C(F)(F)F)cc(C(F)(F)F)c4)CO2)CC3)cc1 [Example 34, 1-(2-{[4-({4-[{3-[({[(2S)-1′-{2-[(5R)-3-[3,5-Bis(trifluoromethyl)benzoyl]-5-(4-fluorophenyl)-1,3-oxazolidin-5-yl]ethyl}-2,3-dihydrospiro[indene-1,4′-piperidin]-2-yl]oxy}acetyl)(methyl)amino]propyl}(methyl)carbamoyl]phenyl}amino)butanoyl](methyl)amino}ethyl)piperidin-4-yl biphenyl-2-ylcarbamate trihydrochloride] | 1 | 0.0251 | 0.0308 |
| CN(CCN1CCC(OC(=O)Nc2ccccc2-c2ccccc2)CC1)C(=O)CCCN(C)c1ccc(C(=O)N(C)CCCN(C)C(=O)CO[C@H]2Cc3ccccc3C23CCN(CC[C@@]2(c4ccc(F)cc4)CN(C(=O)c4cc(C(F)(F)F)cc(C(F)(F)F)c4)CO2)CC3)cc1 [Example 36, 1-{2-[{4-[{4-[{3-[({[(2S)-1′-{2-[(5R)-3-[3,5-Bis(trifluoromethyl)benzoyl]-5-(4-fluorophenyl)-1,3-oxazolidin-5-yl]ethyl}-2,3-dihydrospiro[indene-1,4′-piperidin]-2-yl]oxy}acetyl)(methyl)amino]propyl}(methyl)carbamoyl]phenyl}(methyl)amino]butanoyl}(methyl)amino]ethyl}piperidin-4-yl biphenyl-2-ylcarbamate trihydrochloride] | 1.4 | 0.0146 | 0.0236 |
| CN(CCN1CCC(OC(=O)Nc2ccccc2-c2ccccc2)CC1)C(=O)CCCCN(C)c1ccc(C(=O)N(C)CCCN(C)C(=O)CO[C@H]2Cc3ccccc3C23CCN(CC[C@@]2(c4ccc(F)cc4)CN(C(=O)c4cc(C(F)(F)F)cc(C(F)(F)F)c4)CO2)CC3)cc1 [Example 38, 1-{2-[{5-[{4-[{3-[({[(2S)-1′-{2-[(5R)-3-[3,5-Bis(trifluoromethyl)benzoyl]-5-(4-fluorophenyl)-1,3-oxazolidin-5-yl]ethyl}-2,3-dihydrospiro[indene-1,4′-piperidin]-2-yl]oxy}acetyl)(methy)amino]propyl}(methyl)carbamoyl]phenyl}(methyl)amino]pentanoyl}(methyl)amino]ethyl}piperidin-4-yl biphenyl-2-ylcarbamate trihydrochloride] | 1.5 | 0.0257 | 0.0161 |
| CN(CCN1CCC(OC(=O)Nc2ccccc2-c2ccccc2)CC1)C(=O)CCCCCCN(C)c1ccc(C(=O)N(C)CCCN(C)C(=O)CO[C@H]2Cc3ccccc3C23CCN(CC[C@@]2(c4ccc(F)cc4)CN(C(=O)c4cc(C(F)(F)F)cc(C(F)(F)F)c4)CO2)CC3)cc1 [Example 40, 1-{2-[{7-[{4-[{3-[({[(2S)-1′-{2-[(5R)-3-[3,5-Bis(trifluoromethyl)benzoyl]-5-(4-fluorophenyl)-1,3-oxazolidin-5-yl]ethyl}-2,3-dihydrospiro[indene-1,4′-piperidin]-2-yl]oxy}acetyl)(methyl)amino]propyl}(methyl)carbamoyl]phenyl}(methyl)amino]heptanoyl}(methyl)amino]ethyl}piperidin-4-yl biphenyl-2-ylcarbamate trihydrochloride] | 1.6 | 0.0754 | 0.0191 |
| CN(CCN1CCC(OC(=O)Nc2ccccc2-c2ccccc2)CC1)C(=O)CCCCCNc1cccc(C(=O)N(C)CCCN(C)C(=O)CO[C@H]2Cc3ccccc3C23CCN(CC[C@@]2(c4ccc(F)cc4)CN(C(=O)c4cc(C(F)(F)F)cc(C(F)(F)F)c4)CO2)CC3)c1 [Example 43, 1-(2-{[6-({3-[{3-[({[(2S)-1′-{2-[(5R)-3-[3,5-Bis(trifluoromethyl)benzoyl]-5-(4-fluorophenyl)-1,3-oxazolidin-5-yl]ethyl}-2,3-dihydrospiro[indene-1,4′-piperidin]-2-yl]oxy}acetyl)(methyl)amino]propyl}(methyl)carbamoyl]phenyl}amino)hexanoyl](methyl)amino}ethyl)piperidin-4-yl biphenyl-2-ylcarbamate trihydrochloride] | 1.6 | 0.0757 | 0.0766 |
| CN(CCN1CCC(OC(=O)Nc2ccccc2-c2ccccc2)CC1)C(=O)CCCCCNc1ccc(C(=O)N(C)CCCN(C)C(=O)CO[C@H]2Cc3ccccc3C23CCN(CC[C@@]2(c4ccc(F)cc4)CN(C(=O)c4cc(C(F)(F)F)cc(C(F)(F)F)c4)CO2)CC3)cc1 [Example 72, 1-(2-{[6-({4-[{3-[({[(2S)-1′-{2-[(5R)-3-[3,5-Bis(trifluoromethyl)benzoyl]-5-(4-fluorophenyl)-1,3-oxazolidin-5-yl]ethyl}-2,3-dihydrospiro[indene-1,4′-piperidin]-2-yl]oxy}acetyl)(methyl)amino]propyl}(methyl)carbamoyl]phenyl}amino)hexanoyl](methyl)amino}ethyl)piperidin-4-yl biphenyl-2-ylcarbamate] | 1.4 | 0.0635 | 0.0266 |
